Assays:
[1] = cited from earlier work
[2] = tested on: cofactor F420 reductase from Methanobacterium thermoautotrophicum; conditions: as substrate of the F420 reductase; cited from earlier work
S. cerevisiae = format: cell-based, Saccharomyces cerevisiae
Description: The third primary library (PL3) mediates TAN-1612 high-titer toxicity by merging three complimentary routes. This example (i) optimizes performance of an efflux pump in order to reduce intracellular TAN-1612 concentrations, (ii) screens a large number of wild yeast isolates for higher TAN-1612 tolerance and use them for background crossing and (iii) evolves the v2.0 producer for TAN-1612 resistance through random mutagenesis and selection. In preliminary results, TAN-1612 and anhydrotetracycline (Atc) growth inhibition in concentrations of 10 mg/L was confirmed. In order to increase TAN-1612 tolerance the v2.0 producer co-expresses the supposed efflux pump […]_48051 (GenBank: EHA19824.1) that was obtained by genome-mining from the natural producer strain A. niger. […] This can improve pump performance via gene titration and genome-mines other efflux pumps. PL3 further includes of a large number (>50) of wild S. cerevisiae isolates that are screened for higher tolerance to TAN-1612 using a growth-based microtiter plate assay.

[3] = tested on: Saccharomyces cerevisiae BJ5464; assay: Toxicity assay of TAN-1612 in Saccharomyces cerevisiae; format: cell-based
Method: The toxicity assay of TAN-1612 in Saccharomyces cerevisiae. BJ5464 strains were cultured in complete synthetic medium in presence of different tetracycline or its analogs. […] (FIG. 42B) BJ5464 strains were cultured in YPD: non-defined medium in presence of different tetracycline or its analogs. (FIG. 42A). […] (FIG. 43).

Structure (SMILES)	Relative rate of acid hydrolysis (to OMe) [1]	growth inhibition in concentrations of (S. cerevisiae) [mg/L]	further results
OCC1OC(OC(c2ccccc2)c2ccccc2)C(O)C(O)C1O (stereo not shown)	25.6	–	–
OCC1OC(OC23CC4CC(CC(C4)C2)C3)C(O)C(O)C1O (stereo not shown)	48.5	–	–
O=c1nc2n(C[C@H](O)[C@H](O)[C@H](O)CO)c3cc(O)ccc3cc-2c(=O)[nH]1 [Fo, 7,8-didemethyl-8-hydroxy-5-deazariboflavin]	–	–	Km [2]: 34 µM
COc1cc(O)c2c(O)c3c(cc2c1)CC1(O)CC(=O)C(C(C)=O)=C(O)C1(O)C3=O (stereo not shown) [TAN-1612]	–	10	toxicity at the range of ([3]; BJ5464 cultured in YPD non-defined medium): 50 to 100 mg/L; toxicity at the range of ([3]; BJ5464 cultured in complete synthetic medium): 1 to 10 mg/L
Cc1c2c(c(O)c3c(O)cccc13)C(=O)[C@]1(O)C(=O)C(C(N)=O)=C(O)[C@@H](N(C)C)[C@@H]1C2 [anhydrotetracycline, reference compound]	–	10	–

From patent US20230000934A1, “METHODS FOR ENGINEERING THERAPEUTICS AND USES THEREOF” (The Trustees of Columbia University In The City of New York, priority 2019, published 2023)
